Source: patent US12497396B2, “Nitrogen-containing heterocyclic derivatives, method therefor and application therefor as inhibitors of KRAS G12C for the treatment of cancers” (SHANGHAI HANSOH BIOMEDICAL CO., LTD., priority 2019, dated 2025)

What was measured:
[1] = system: phosphorylated ERK in KRAS G12C mutant cells Mia PaCa-2; assay: Inhibition of phosphorylated ERK level in Mia PaCa-2 cells (LANCE Ultra); assay type: cell-based; settings: Homo sapiens, 2 hours, read-out: Mia PaCa-2 pERK IC50
Description: As a preferred embodiment of the present disclosure, the method for detecting the inhibitory activity of phosphorylated ERK level is as follows: through cell culture, adding different concentrations of compound solutions to the cultured cells, continuing the culture for a period of time, lysing the cells, followed by centrifugation and […]; • further, the method of cell culture is: adjusting the cells to a suitable cell concentration with a complete medium, preferably the cell concentration is 1×10^6/mL, and spreading the cell suspension on a well plate for culture.
When Mia PaCa-2 cells were cultured to the appropriate fusion level, Mia PaCa-2 cells were collected, and the cell density was adjusted to 1×10^6/mL using complete culture medium, the cell suspension was spread on a 96-well plate, 50 μL per well, and placed adherent to the wall in a 37° C., 5% CO2 incubator overnight, compound solutions with different concentrations were prepared using DMSO and complete culture medium, a solvent control was set, the compound solution was added to a 96-well plate, 25 μL per well, and placed in a 37° C., 5% CO2 incubator for 2 hours of continuous culture, the supernatant was discarded from the cell culture plate, 50 μL of lysis solution was added to each well, and lysing was performed for 30 minutes by shaking at room temperature, then the mixture was centrifuged at 1000 rpm for 1 minute, 15 μL of supernatant was transferred to 384 well plate, 5 μL of detection mixture (Eu-labeled anti-ERK1/2 (T202-Y204) antibody with final concentration of 0.5 nM and ULight labeled anti-ERK1/2 antibody with final concentration of 5 nM) was added to each well, centrifuged at 1000 rpm for 1 minute and mixed uniformly, the reaction was carried out overnight at room temperature, the plate was read with BioTek Synergy H1, and the signal values was detected at 620 nm and 665 nm emission wavelengths by time-resolved fluorescence program.
The ratio of the signal values at 665 nm and 620 nm emission wavelength were calculated, and the ratio was used to calculate the inhibition rate, the concentration and the inhibition rate were fitted to a nonlinear regression curve using Graphpad Prism software, then the IC50 value was obtained.

[2] = Plasma protein binding rate, human plasma; assay type: in vitro ADME; settings: 37° C.
Procedure: The embodiment compound was prepared into a 1 mM solution A with DMSO.
Solution A was added to the plasma solution and prepared into a 5 μM solution B.
• 1) 200 μL of solution B was added into the membrane. • 2) 350 μL of PBS was added to the outside of the membrane. • 3) Incubating in a 37° C. water bath for 6 hours. • 4) The samples were processed for dilution and detected by mass spectrometry.
• Instrument: Shimadzu LC-20 AD; • Chromatographic column: phenomenex Gemiu® C18 (50*4.6 mm, 5 μM particle size); • Mobile phase: A: Acetonitrile, B: 0.1% formic acid solution 0-0.5 min: 5% A→90% A, 2.0-2.1 min: 90% A→5% A; flow rate: 0.8 mL/min; running time: 5.0 min; injection volume: 5 μL.
• Instrument: API4000 Liquid Chromatography-Mass Spectrometry, AB, USA; • the ion source was electrospray ionization source (ESI); • the temperature of dry gas (N2) was 500° C.; • electrospray voltage was 5500V; • the detection method was positive ion detection; • the scanning mode was selective response monitoring (MRM); the scanning time was 0.1 s.

[3] = biological target: T1, CYP2C9 (Homo sapiens, UniProt P11712); assay: CYP enzyme single point inhibition, human liver microsomes, 2C9; assay type: in vitro ADME; settings: single point method
T1 construct: from tissue; host or cells: human liver microsomes
T1 sequence (P11712 whole entry): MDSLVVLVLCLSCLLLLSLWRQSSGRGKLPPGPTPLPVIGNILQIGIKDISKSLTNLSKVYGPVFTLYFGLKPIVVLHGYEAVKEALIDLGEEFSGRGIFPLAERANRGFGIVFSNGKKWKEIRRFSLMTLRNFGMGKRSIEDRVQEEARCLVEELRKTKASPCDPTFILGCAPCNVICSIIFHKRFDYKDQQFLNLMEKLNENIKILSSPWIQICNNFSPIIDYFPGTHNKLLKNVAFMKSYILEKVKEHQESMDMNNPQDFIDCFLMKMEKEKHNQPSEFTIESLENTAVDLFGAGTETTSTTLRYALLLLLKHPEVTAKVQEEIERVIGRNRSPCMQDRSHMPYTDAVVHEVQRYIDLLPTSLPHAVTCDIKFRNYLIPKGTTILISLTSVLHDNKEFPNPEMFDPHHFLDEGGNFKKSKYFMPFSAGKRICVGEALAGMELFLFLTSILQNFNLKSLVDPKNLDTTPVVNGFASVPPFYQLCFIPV
Procedure: Using human liver microsomal incubation system, the inhibition of CYP450 enzyme subtypes by compounds was rapidly predicted by single point method.
2.5 mM NADPH: 100 mM phosphate buffer was added to 4.165 mg of NADPH (reduced nicotinamide adenine dinucleotide phosphate) to 2 mL. 0.25 mg/mL microsome: 4 mL of 100 mM phosphate buffer was added to 50 μL of 20 mg/mL microsome and mixed well.
The embodiment compound to be tested was weighed and diluted to 10 mM with DMSO and then diluted to 100 μM with 100 mM phosphate buffer.
• 1. In a 96-well plate, 40 μL of liver microsomes, 10 μL of substrate, 10 μL of compound to be tested were pre-incubated for 3 min. • 2. 40 μL of NADPH was added. • 3. 300 μL of acetonitrile termination solution containing internal standard was added at 20 min. • 4. Centrifugal injection.

[4] = system: human pancreatic cancer cell MiaPaca 2 xenograft; assay: Tumor inhibition on MiaPaca 2 transplanted tumor (CDX) model; assay type: in vivo, BALB/c nude mice; settings: for TGI (%) Day 21 / tumor volume (mm^3, Mean ± SD) Day 21 / ΔT/ΔC(%) Day 21: Day 21, 6 mg/kg QD×3 w oral; for tumor volume (mm^3, Mean ± SD) Day 0: baseline Day 0, 6 mg/kg QD×3 w oral
Procedure: MiaPaca 2 cells were removed from the cell bank, revived and added to DMEM medium (containing 10% FBS, 1% Glu, 1% P/S) and incubated in a CO2 incubator (incubator temperature was 37° C., CO2 concentration was 5%). After the cells were spread to 80-90% of the bottom of the culture flask, the cells were continued to be cultured in the CO2 incubator. The process was repeated until the number of cells met the in vivo pharmacological inoculation requirement, and the cells in logarithmic growth period were collected and counted with an automatic cell counter, resuspended with PBS and Matrigel (volume ratio 1:1) according to the count results, made into a cell suspension (the density was 8×10^7/mL), and placed in an ice box for use.
BALB/c nude mice, female, 6-8 weeks old, weighing about 18-22 g. The mice were kept in an environment free of special pathogens and in a single ventilated cage with 5 mice in each cage. All cages, bedding and water were sterilized before use, and all animals had free access to standard certified commercial laboratory diets. Nude mice were labeled with disposable universal ear tags for mice and rats before the start of the experiment, and the skin of the inoculation site was disinfected with 75% medical alcohol before inoculation, 0.1 mL (containing 8*10^6 cells) of MiaPaca 2 tumor cells were inoculated subcutaneously on the right back of each mouse. When the tumor volume reached 100-200 mm^3, the group administration was started. The tested compounds were administered daily by oral intragastric administration, dosage/frequency (6 mg/kg QD×3 w), and the efficacy of each group at the end of the experiment was shown in Table 29.
The tumor volume (mm^3) was measured with vernier caliper twice a week, the calculation formula was V=[…], wherein D and d were the long and short diameter of the tumor, respectively. The anti-tumor efficacy was determined by dividing the average tumor increased volume of the compound-treated animals by the average tumor increased volume of the untreated animals. The formula of tumor inhibition rate is: TGI (%)=1−[(Vt−V0) administration group/(Vt−V0) solvent control group]*100%. After the experiment, all animals were euthanized.

SMILES	IC50 [1]	fraction unbound at 6 h, 5 μM [2]	IC50 [3]	TGI (%) Day 21 [4]	tumor volume (mm^3, Mean ± SD) Day 21 [4]	ΔT/ΔC(%) Day 21 [4]	tumor volume (mm^3, Mean ± SD) Day 0 [4]
C=CC(=O)N1C[C@H](C)N(c2nc(=O)n(-c3c(SC)ccnc3C(C)C)c3nc(-c4c(O)cccc4F)c(Cl)cc23)C[C@H]1C (single isomer, unassigned) [Embodiment 166-1]	20 nM	0.032					
C=CC(=O)N1C[C@H](C)N(c2nc(=O)n(-c3c(SC)ccnc3C(C)C)c3nc(-c4c(N)ccc(Cl)c4F)c(Cl)cc23)C[C@H]1C (single isomer, unassigned) [Embodiment 165-1]	4.2 nM	0.003	58.8 nM	176.76%	41 ± 19 mm^3	−76.76%	178 ± 34 mm^3
C=CC(=O)N1C[C@H](C)N(c2nc(=O)n(-c3c(SC)ccnc3C(C)C)c3nc(-c4c(O)cccc4F)c(F)cc23)C[C@H]1C (single isomer, unassigned) [Embodiment 114-1]	38 nM	0.02	84.6 nM	162.36%	67 ± 34 mm^3	−62.36%	177 ± 38 mm^3
